Where two headings read alike, the source gives them in different places. Peptide text beside a SMILES is read from it.
Target: SLC35G3 (Homo sapiens, UniProt Q8N808)
Assay: Uptake ratio screen, SLC35G3-overexpressing HEK293 over empty vector cells
Assay type: cell-based
Set-up: by amplifying the entire gene-of-interest within the HEK293 genome via a long-range PCR
[1] = 2.5 μM substrate, 2 min, HEK293

Chain of SLC35G3 (Q8N808 whole entry): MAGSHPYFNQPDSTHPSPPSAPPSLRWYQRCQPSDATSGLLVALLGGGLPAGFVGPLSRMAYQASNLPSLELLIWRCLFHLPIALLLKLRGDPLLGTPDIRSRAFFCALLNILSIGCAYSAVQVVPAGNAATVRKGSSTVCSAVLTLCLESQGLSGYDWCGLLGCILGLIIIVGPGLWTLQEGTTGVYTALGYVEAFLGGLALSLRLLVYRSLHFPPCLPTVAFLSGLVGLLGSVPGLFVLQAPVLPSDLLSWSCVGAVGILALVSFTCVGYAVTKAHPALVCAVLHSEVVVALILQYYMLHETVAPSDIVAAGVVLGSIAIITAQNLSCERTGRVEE

Structure (SMILES)	Uptake data for SLC35G3, mean value (fold-increase over empty vector control) [1]	Uptake data for SLC35G3, mean value (fold-increase over empty vector control)
COCCOC(=O)C1=C(C)NC(C)=C(C(=O)OC(C)C)C1c1cccc([N+](=O)[O-])c1 (centres unmarked) [Nimodipine]	1.26	
COc1cc(Cc2cnc(N)nc2N)cc(OC)c1OC [Trimethoprim]	1.24	
COc1ccc2c3c1O[C@H]1C[C@@H](O)C=C[C@@]31CCN(C)C2 [Galantamine]	1.57	
CC(CCc1ccc(O)cc1)NCCc1ccc(O)c(O)c1 (centres unmarked) [Dobutamine]	1.58	
NC(=O)C1(N2CCCCC2)CCN(CCCC(=O)c2ccc(F)cc2)CC1 [Pipamperone]	1.33	
N[C@@H]1C[C@H]1c1ccccc1 (racemic) [Tranylcypromine]	2.56	
CNC[C@H](O)c1cccc(O)c1 [Phenylephrine]	1.10	
C[C@H]1COc2c(N3CCN(C)CC3)c(F)cc3c(=O)c(C(=O)O)cn1c23 [Levofloxacin]	1.05	
C[C@@H](O)[C@H]1C(=O)N2C(C(=O)O)=C(S[C@@H]3CN[C@H](C(=O)N(C)C)C3)[C@H](C)[C@H]12 [Meropenem]	1.27	
CN[C@@H]1CCc2[nH]c3ccc(C(N)=O)cc3c2C1 [Frovatriptan (R-), Frovatriptan]	1.06	
CCN1CCCC1CNC(=O)c1cc(S(=O)(=O)CC)c(N)cc1OC (centres unmarked) [Amisulpride]	1.53	
O=C1c2cccc3c2[C@H](CCC3)CN1[C@@H]1CN2CCC1CC2 [Palonosetron]	1.36	
NC1Cc2cc3c(cc2C1)OCO3 [MDAI, 5,6-Methylenedioxy-2-aminoindane]	1.71	
CCOc1ccccc1OCCN[C@H](C)Cc1ccc(OC)c(S(N)(=O)=O)c1 [Tamsulosin]	1.39	
NCC1(CC(=O)O)CCCCC1 [Gabapentin]	0.90	
CN(C)CCCN1c2ccccc2CCc2ccccc21 [Imipramine]	1.40	
CC(Cc1ccc(O)cc1)NCC(O)c1cc(O)cc(O)c1 (centres unmarked) [Fenoterol]	1.19	
CCCCN1CCCCC1C(=O)Nc1c(C)cccc1C (centres unmarked) [Bupivacaine]	2.44	
COc1ccc(CN(CCN(C)C)c2ccccn2)cc1 [Pyrilamine]	1.74	
COc1c(N2C[C@@H]3CCCN[C@@H]3C2)c(F)cc2c(=O)c(C(=O)O)cn(C3CC3)c12 [Moxifloxacin]	1.34	
O=C1CCc2ccc(OCCCCN3CCN(c4cccc(Cl)c4Cl)CC3)cc2N1 [Aripiprazole]	1.22	
C#CCN[C@@H]1CCc2ccccc21 [Rasagiline]	1.90	
COCCn1c2c([n+](Cc3cnccn3)c1C)C(=O)c1ccccc1C2=O [YM155]	1.11	
COc1ccccc1N1CCN(CCCNc2cc(=O)n(C)c(=O)n2C)CC1 [Urapidil]	1.37	
O=C1CC2(CCCC2)CC(=O)N1CCCCN1CCN(c2ncccn2)CC1 [Buspirone]	1.72	
CNCC1CCCCC1(O)c1cccc(OC)c1 (centres unmarked) [N-Desmethyltramadol]	1.38	
CN(C)CCC=C1c2ccccc2CCc2ccccc21 [Amitriptyline]	1.47	

Structure (SMILES)	Uptake data for SLC35G3, mean value (fold-increase over empty vector control) [1]	Uptake data for SLC35G3, mean value (fold-increase over empty vector control)
O=C(O[C@H]1CN2CCC1CC2)N1CCc2ccccc2[C@@H]1c1ccccc1 [Solifenacin]	1.26	
COCCc1ccc(OCC(O)CNC(C)C)cc1 (centres unmarked) [Metoprolol]	1.52	
C=CCN1C[C@H](C(=O)N(CCCN(C)C)C(=O)NCC)C[C@@H]2c3cccc4[nH]cc(c34)C[C@H]21 [Cabergoline]	1.49	
CNC1(c2ccccc2Cl)CCCCC1=O (centres unmarked) [Ketamine]		1.28
COc1cc2nc(N3CCN(C(=O)C4CCCO4)CC3)nc(N)c2cc1OC (centres unmarked) [Terazosin]	1.49	
O=C(CCCN1CCC(O)(c2ccc(Cl)cc2)CC1)c1ccc(F)cc1 [Haloperidol]	1.47	
C[N+](C)(C)CC(=O)O [Betaine]	0.84	
CC(NC(C)(C)C)C(=O)c1cccc(Cl)c1 (centres unmarked) [Bupropion]	1.29	
CNCCCN1c2ccccc2CCc2ccccc21 [Desipramine]	1.31	
CCCCNc1ccc(C(=O)OCCN(C)C)cc1 [Tetracaine]	1.54	
C[C@H]1c2cccc(O)c2C(=O)C2=C(O)[C@]3(O)C(=O)C(C(N)=O)=C(O)[C@@H](N(C)C)[C@@H]3[C@@H](O)[C@@H]21 [Doxycycline]	1.34	
CC(C)NCC(O)COc1ccc(COCCOC(C)C)cc1 (centres unmarked) [Bisoprolol]	1.24	
CN1CCN(C2=Nc3cc(Cl)ccc3Nc3ccccc32)CC1 [Clozapine]	1.44	
CNCC(c1ccc(OC)cc1)C1(O)CCCCC1 (centres unmarked) [N-Desmethylvenlafaxine]	1.20	
CCN(C)C(=O)Oc1cccc([C@H](C)N(C)C)c1 [Rivastigmine]	1.65	
C=CCN1CC[C@]23c4c5ccc(O)c4O[C@H]2C(=O)CC[C@@]3(O)[C@H]1C5 [Naloxone]	2.01	
Cc1cccc(C)c1NC(=O)C1CCCCN1C (centres unmarked) [Mepivacaine]	2.30	
CN[C@@H](C)[C@H](O)c1ccccc1 [Ephedrine]	1.59	
COC(=O)[C@H](Cc1ccccc1)NC(=O)[C@@H](N)CC(=O)O [Aspartame] (H-Asp-Phe-OMe)	0.92	
Fc1ccc([C@@H]2CCNC[C@H]2COc2ccc3c(c2)OCO3)cc1 [Paroxetin]	1.30	
C[C@H](N)[C@@H](O)c1ccccc1 [Cathine ((+)-Norpseudoephedrine), (+)-Norpseudoephedrine]		1.21
CC[C@@H](CO)NCCN[C@@H](CC)CO [Ethambutol]	0.99	
NCCc1ccc(O)cc1 [Tyramine]	1.61	
CC(C)(C)c1ccc(C(O)CCCN2CCC(C(O)(c3ccccc3)c3ccccc3)CC2)cc1 (centres unmarked) [Terfenadine]	1.28	
OC(CCN1CCCCC1)(c1ccccc1)C1CC2C=CC1C2 (centres unmarked) [Biperiden]	1.50	
CC(C)NCC(O)COc1cccc2ccccc12 (centres unmarked) [Propranolol]	1.27	

— PMC11406361, “Several orphan solute carriers functionally identified as organic cation transporters: Substrates specificity compared with known cation transporters” (The Journal of Biological Chemistry, 2024)
